From article PMC7305224, “Mutually stabilizing interactions between proto-peptides and RNA” (Nature Communications, 2020)
Non-standard residues stand in square brackets, D forms with d. Residues, ends and D or L forms follow the SMILES beside them. Dab = NCC[C@H](N)C(=O)O

How the values were obtained:
Assay type in all cases: binding
[1] = test system: RNA duplex 3 (5′-rArArCrGrUrArUrArCrGrUrU-3′, palindromic); assay: RNA thermal denaturation (Tm) by UV hyperchromicity, RNA duplex 3; settings: for RNA duplex 3 Tm: observed Tm with peptide/depsipeptide 100 µM, pH 7.0, RNA alone 48.6 ± 0.7, mean ± SD of 2-4 independent experiments; for RNA duplex 3 ΔTm: peptide/depsipeptide 100 μM, 5.0 μM palindromic strand, pH 7.0, 10 mM phosphate, 100 mM NaCl, mean of 2–4 replicates
Description: (§1) Prior to Tm analyses, RNA samples were annealed in the appropriate buffer by heating to 75 °C and slowly cooling to room temperature. Depsipeptide/peptide was added to the annealed RNA and incubated at 4 °C for 20 min prior to carrying out the analysis. For analyses involving dry-down reaction mixtures, the Tm was determined by monitoring fluorescence increase upon melting of a fluorophore/quencher-labeled RNA duplex (5′-rCrGrArUrUrUrArGrCrG-/3IABkFQ/-3′ and 3′-rGrCrUrArArArUrCrGrC-FAM-5′) using a BioRad CFX Connect rtPCR instrument with a heating ramp of 1 °C/min and 20 μL final sample volumes. For analyses involving pure, synthetic compounds, the Tm of the RNA was determined by monitoring UV hyperchromicity at 260 nm using a Varian Cary Bio-100 spectrophotometer, with a heating ramp of 1 °C/min and 0.5- or 1-cm pathlength cells. The following RNA sequences were used: RNA duplex 1 = 5′-rCrGrCrUrArArArUrCrG-3′ and 5′-rCrGrArUrUrUrArGrCrG-3′; RNA duplex 2 = 5′-rArArArArUrUrUrArUrArUrUrArUrUrA-3′ and 5′-rUrArArUrArArUrArUrArArArUrUrUrU-3′; RNA duplex 3 = 5′-rArArCrGrUrArUrArCrGrUrU-3′ (palindromic); and H26a RNA = 5′-rArUrGrArGrUrArArCrCrGrUrArArGrGrUrGrArArArUrU-3′. RNA was present in each assay at a final concentration of 2.5 μM of the folded structure (2.5 μM each strand for duplex 1 and duplex 2, 5.0 μM palindromic strand for duplex 3, 2.5 μM strand for H26a RNA). Tm values were determined by nonlinear fitting of the melting curves using GraphPad Prism 8.2.1 for duplex 1 and H26a, or by finding the maximum of the first derivative of the curve using the Varian Cary Bio-100 software for duplex 2 and duplex 3. Both methods of determining the Tm gave similar values for a given denaturation curve.

[2] = test system: RNA duplex 2 (5′-rArArArArUrUrUrArUrArUrUrArUrUrA-3′ and 5′-rUrArArUrArArUrArUrArArArUrUrUrU-3′); assay: RNA thermal denaturation (Tm) by UV hyperchromicity, RNA duplex 2; settings: for RNA duplex 2 Tm: observed Tm with peptide/depsipeptide 100 µM, pH 7.0, RNA alone 33.7 ± 0.7, mean ± SD of 2-4 independent experiments; for RNA duplex 2 ΔTm: peptide/depsipeptide 100 μM, RNA 2.5 μM each strand, pH 7.0, 10 mM phosphate, 100 mM NaCl, mean of 2–4 replicates
Description: as §1

[3] = test system: RNA duplex 1 (5′-rCrGrCrUrArArArUrCrG-3′ & 5′-rCrGrArUrUrUrArGrCrG-3′); assay: RNA thermal denaturation (Tm) by UV hyperchromicity at 260 nm with synthetic peptides/depsipeptides, RNA duplex 1; settings: 100 mM NaCl; for RNA duplex 1 Tm: observed Tm with peptide/depsipeptide 100 µM, mean ± SD of 2-4 independent experiments; for RNA duplex 1 ΔTm: peptide/depsipeptide 100 μM, RNA 2.5 μM each strand, mean of 2–4 replicates
Description: Each sample contained RNA duplex 1 (5′-rCrGrCrUrArArArUrCrG-3′ and 5′-rCrGrArUrUrUrArGrCrG-3′, 2.5 μM strand) and peptide/depsipeptide (100 μM) in buffered solution (10 mM phosphate, 100 mM NaCl, pH 7.0 or 10 mM acetate, 100 mM NaCl, pH 5.0). a Structures of depsipeptides used to systematically characterize cationic side chain effects on RNA duplex stability. Lactic acid residues are highlighted. Ac acetyl, Aba acetamidobenzoic acid, which was appended to the N-terminus to increase UV absorbance. b Structures of the Fmoc-didepsipeptide building blocks used for solid-phase synthesis of depsipeptide sequences. Fmoc fluorenylmethoxycarbonyl. c Comparative effects of oligo-didepsipeptide sequences 2–6 and analogous oligo-dipeptide and on the Tm of the RNA duplex (number of independent measurements: n = 3 for Arg and Lys sequences; n = 2 for His and Dab sequences; n = 4 for Orn sequences). The shaded areas correspond to the mean ± SD Tm measured for the RNA duplex alone (n = 16 independent measurements). Data are shown as a scatter plot with mean ± SD. d Comparative effects on RNA duplex Tm of depsipeptide sequences containing a single backbone ester (number of independent measurements: n = 3 for Arg; n = 2 for His, Orn, and Dab; n = 4 for Lys), relative to RNA duplex alone (n = 16 independent measurements). Data are shown as a scatter plot with mean ± SD. e To assess the impact of different cationic side chains on depsipeptide degradation rates, depsipeptides 7–11 (40 μM) were incubated at 37 °C in buffer (100 mM HEPES, 10 mM NaCl, pH 7.3). After 5 min, the reactions were quenched by the addition of 3% TFA, and samples were analyzed by HPLC.
as §1, with “3.” for “3. Both methods of determining the Tm gave similar values for a given denaturation curve.”

[4] = test system: H26a RNA (5′-rArUrGrArGrUrArArCrCrGrUrArArGrGrUrGrArArArUrU-3′); assay: RNA thermal denaturation (Tm) by UV hyperchromicity, H26a RNA hairpin; settings: for H26a RNA Tm: observed Tm with peptide/depsipeptide 100 µM, pH 7.0, RNA alone 53.4 ± 0.5, mean ± SD of 2-4 independent experiments; for H26a RNA ΔTm: peptide/depsipeptide 100 μM, RNA 2.5 μM strand, pH 7.0, 10 mM phosphate, 100 mM NaCl, mean of 2–4 replicates
Description: as §1

RNA duplex 1 = assay: CD analysis of RNA duplex with peptides/depsipeptides; settings: RNA duplex 5 µM, peptide/depsipeptide 0–10 µM, MES-TEA buffer (60 mM)
Description: The gel was cropped at the edges for clarity. […] […] Red and blue colors of the filled circles correspond to curves of the same color in panel (c). […] […] Scans were from 320 nm to 220 nm with a bandwidth of 5 nm, data pitch of 0.2 nm, and scan rate of 50 nm/min with three accumulations. […] Data were collected in independent triplicates and the data were averaged. Finally, data were smoothed and plotted using Matlab.

[5] = pH 7.0, 10 mM phosphate, RNA alone 43.8 ± 0.4
[6] = 10 mM phosphate, pH 7.0, vs RNA alone at matched pH
[7] = pH 5.0, 10 mM acetate, RNA alone 41.5 ± 0.3
[8] = 10 mM acetate, pH 5.0, vs RNA alone at pH 5.0

| Compound | RNA duplex 3 Tm [1] [°C] | RNA duplex 3 ΔTm [1] [°C] | RNA duplex 2 Tm [2] [°C] | RNA duplex 2 ΔTm [2] [°C] | RNA duplex 1 Tm [3, 5] [°C] | RNA duplex 1 ΔTm [3, 6] [°C] | H26a RNA Tm [4] [°C] | H26a RNA ΔTm [4] [°C] | RNA duplex 1 Tm [3, 7] [°C] | RNA duplex 1 ΔTm [3, 8] [°C] | changes in CD spectra of the RNA duplex upon addition (RNA duplex 1) |
| --- | --- | --- | --- | --- | --- | --- | --- | --- | --- | --- | --- |
| Aba-Lys-lac-Lys-lac-Lys-lac-Lys-lac-Lys-lac-Lys-lac-Lys-lac-Lys-lac-NH2 [compound 4] | 52.5 ± 0.7 | 3.9 | 35.2 ± 0.1 | 1.5 | 46.4 ± 0.1 | 2.6 | 59.7 ± 0.6 | 6.3 |  |  |  |
| Aba-Gly-Ala-Dab-Lys-Ala-Dab-Arg-lac-Dab-Lys-Ala-Dab-Lys-NH2 [compound 7] | 60.6 ± 0.8 | 12.0 | 41.8 ± 0.6 | 8.1 | 52.5 ± 0.3 | 8.7 | 64.8 ± 0.1 | 11.4 |  |  |  |
| Aba-Gly-Ala-Dab-Lys-Ala-Dab-Dab-lac-Dab-Lys-Ala-Dab-Lys-NH2 [compound 11] |  |  |  |  | 48.7 ± 0.2 | 4.9 |  |  |  |  |  |
| Aba-His-lac-His-lac-His-lac-His-lac-His-lac-His-lac-His-lac-His-lac-NH2 [compound 3] |  |  |  |  | 44.3 ± 1.0 | 0.5 |  |  | 46.1 ± 0.7 | 4.6 |  |
| Aba-Gly-Ala-Dab-Lys-Ala-Dab-His-lac-Dab-Lys-Ala-Dab-Lys-NH2 [compound 8] |  |  |  |  | 48.9 ± 1.4 | 5.1 |  |  | 52.6 ± 0.2 | 11.1 |  |
| Aba-Orn-lac-Orn-lac-Orn-lac-Orn-lac-Orn-lac-Orn-lac-Orn-lac-Orn-lac-NH2 [compound 5] | 49.1 ± 0.1 | 0.5 | 34.6 ± 0.7 | 1.0 | 43.8 ± 0.9 | 0.0 | 52.3 ± 0.6 | −1.1 |  |  |  |
| CC(=O)N[C@@H](Cc1ccc(O)cc1)C(=O)NCC(=O)N[C@@H](C)C(=O)N[C@@H](CCN)C(=O)N[C@@H](CCCCN)C(=O)N[C@@H](C)C(=O)N[C@@H](CCN)C(=O)N[C@@H](CCCCN)C(=O)N[C@@H](C)C(=O)N[C@@H](CCN)C(=O)N[C@@H](CCCCN)C(=O)N[C@@H](C)C(=O)N[C@@H](CCN)C(=O)N[C@@H](CCCCN)C(=O)N[C@@H](C)C(=O)N[C@@H](CCN)C(=O)N[C@@H](CCCCN)C(N)=O (Ac-YGA[Dab]KA[Dab]KA[Dab]KA[Dab]KA[Dab]K-NH2) |  |  |  |  |  |  |  |  |  |  | physical association |
| Aba-Arg-lac-Arg-lac-Arg-lac-Arg-lac-Arg-lac-Arg-lac-Arg-lac-Arg-lac-NH2 [compound 2] |  |  |  |  | 49.1 ± 0.7 | 5.3 |  |  |  |  |  |
| Aba-Gly-Ala-Dab-Lys-Ala-Dab-Orn-lac-Dab-Lys-Ala-Dab-Lys-NH2 [compound 10] | 51.1 ± 1.3 | 2.5 | 41.8 ± 0.5 | 8.2 | 48.7 ± 1.2 | 4.9 | 56.9 ± 0.1 | 3.5 |  |  |  |
| CC(=O)N[C@@H](Cc1ccc(O)cc1)C(=O)NCC(=O)N[C@@H](C)C(=O)N[C@@H](CCN)C(=O)N[C@@H](CCCCN)C(N)=O [Ac-Tyr-Gly-Ala-Dab-Lys-NH2] (Ac-YGA[Dab]K-NH2) |  |  |  |  |  |  |  |  |  |  | physical association |
| CC(=O)N[C@@H](Cc1ccc(O)cc1)C(=O)NCC(=O)N[C@@H](C)C(=O)N[C@@H](CCN)C(=O)N[C@@H](CCCCN)C(=O)N[C@@H](C)C(=O)N[C@@H](CCN)C(=O)N[C@@H](CCCCN)C(N)=O [Ac-Tyr-Gly-Ala-Dab-Lys-Ala-Dab-Lys-NH2] (Ac-YGA[Dab]KA[Dab]K-NH2) |  |  |  |  |  |  |  |  |  |  | physical association |
| Aba-Dab-lac-Dab-lac-Dab-lac-Dab-lac-Dab-lac-Dab-lac-Dab-lac-Dab-lac-NH2 [compound 6] | 48.2 ± 0.1 | −0.4 | 36.2 ± 0.1 | 2.6 | 44.2 ± 0.2 | 0.4 | 53.9 ± 0.2 | 0.5 |  |  |  |
